Laboratory results from patent publication US12528786B2, “Plasma kallikrein inhibitors” (Merck Sharp & Dohme LLC, priority 2020, dated 2026).

Target: T1, Human plasma kallikrein (Homo sapiens, UniProt P03952)
T1 construct: yields a heavy chain (371 amino acids) and a light chain (248 amino acids); purchased Enzyme Research Laboratories
Assay: Kallikrein Assay (fluorogenic substrate hydrolysis, AFC release)
Assay type: biochemical
Conditions: purified Human plasma kallikrein 0.5 nM; substrate Acetyl-K—P—R-AFC 100 mM; 50 mM HEPES pH 7.4
Outline: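 Purified human plasma kallikrein (0.5 nM final) with Acetyl-K-P-R-AFC substrate (final ≤0.2 Km) in 50 mM HEPES pH 7.4, 150 mM NaCl, 5 mM CaCl2, 0.1% PEG 8000, after enzyme–inhibitor equilibration; room temperature or 37° C. AFC fluorescence (405 Ex/510 Em nm) under linear conditions; IC50 by four-parameter fit, Ki via Cheng-Prusoff.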

T1 sequence (P03952 391-638 limits assumed): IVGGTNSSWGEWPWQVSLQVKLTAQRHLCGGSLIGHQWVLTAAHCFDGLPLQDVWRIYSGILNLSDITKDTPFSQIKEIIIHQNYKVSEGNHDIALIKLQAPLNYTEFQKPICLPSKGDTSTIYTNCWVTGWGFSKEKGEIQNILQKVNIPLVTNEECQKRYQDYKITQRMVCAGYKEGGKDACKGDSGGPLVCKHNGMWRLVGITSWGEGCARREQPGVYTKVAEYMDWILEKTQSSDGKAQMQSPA
T1 sequence (P03952 20-390 partner limits assumed): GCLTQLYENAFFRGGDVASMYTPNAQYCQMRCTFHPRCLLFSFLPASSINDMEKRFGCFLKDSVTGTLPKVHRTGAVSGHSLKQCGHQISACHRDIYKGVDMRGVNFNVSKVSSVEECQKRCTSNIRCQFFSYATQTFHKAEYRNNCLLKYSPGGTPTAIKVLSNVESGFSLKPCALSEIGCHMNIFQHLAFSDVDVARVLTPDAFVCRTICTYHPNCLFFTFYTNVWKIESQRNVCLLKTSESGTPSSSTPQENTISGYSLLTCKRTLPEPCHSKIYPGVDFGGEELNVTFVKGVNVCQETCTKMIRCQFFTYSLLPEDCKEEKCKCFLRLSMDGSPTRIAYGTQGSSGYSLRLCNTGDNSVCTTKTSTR

Row | SMILES | IC50 [µM]
1 | Cc1cc(N2C[C@H]3C[C@H]3C2=O)ncc1C(C)n1cc(C(=O)N[C@@H]2CC[C@H](c3cc(Cl)ccc3C#N)C2)nn1 (single isomer, unassigned) [Example 63, N-((1R,3S)-3-(5-chloro-2-cyanophenyl)cyclopentyl)-1-((S or R)-1-(4-methyl-6-((1R,5S)-2-oxo-3-azabicyclo[3.1.0]hexan-3-yl)pyridin-3-yl)ethyl)-1H-1,2,3-triazole-4-carboxamide] | 0.026
2 | Cc1cc(N2C[C@H]3C[C@H]3C2=O)ncc1C(C)n1cc(C(=O)N[C@H]2C[C@@](C)(c3cc(Cl)ccc3C#N)C2)nn1 (single isomer, unassigned) [Example 64, N-((cis)-3-(5-chloro-2-cyanophenyl)-3-methylcyclobutyl)-1-((R or S)-1-(4-methyl-6-((1R,5S)-2-oxo-3-azabicyclo[3.1.0]hexan-3-yl)pyridin-3-yl)ethyl)-1H-1,2,3-triazole-4-carboxamide] | 0.0159
3 | Cc1cc(N2C[C@H]3C[C@H]3C2=O)ncc1C(C)n1cc(C(=O)N[C@H]2C[C@@](C)(c3cc(Cl)ccc3C#N)C2)nn1 (single isomer, unassigned) [Example 65, N-((cis)-3-(5-chloro-2-cyanophenyl)-3-methylcyclobutyl)-1-((S or R)-1-(4-methyl-6-((1R,5S)-2-oxo-3-azabicyclo[3.1.0]hexan-3-yl)pyridin-3-yl)ethyl)-1H-1,2,3-triazole-4-carboxamide] | 0.0003
4 | Cc1ccc(C#N)c([C@H]2C[C@@H](NC(=O)c3cn(C(C)c4cnc(N5C[C@H]6C[C@H]6C5=O)cc4C)nn3)C2)c1 (single isomer, unassigned) [Example 66, N-((cis)-3-(2-cyano-5-methylphenyl)cyclobutyl)-1-((R or S)-1-(4-methyl-6-((1R,5S)-2-oxo-3-azabicyclo[3.1.0]hexan-3-yl)pyridin-3-yl)ethyl)-1H-1,2,3-triazole-4-carboxamide] | 0.0626
5 | Cc1ccc(C#N)c([C@H]2C[C@@H](NC(=O)c3cn(C(C)c4cnc(N5C[C@H]6C[C@H]6C5=O)cc4C)nn3)C2)c1 (single isomer, unassigned) [Example 67, N-((cis)-3-(2-cyano-5-methylphenyl)cyclobutyl)-1-((S or R)-1-(4-methyl-6-((1R,5S)-2-oxo-3-azabicyclo[3.1.0]hexan-3-yl)pyridin-3-yl)ethyl)-1H-1,2,3-triazole-4-carboxamide] | 0.0017
6 | Cc1ccc(C#N)c([C@H]2C[C@@H](NC(=O)c3cn(C(C)c4cnc(N5C[C@H]6C[C@H]6C5=O)cc4C)nn3)C2)n1 (single isomer, unassigned) [Example 68, N-((cis)-3-(3-cyano-6-methylpyridin-2-yl)cyclobutyl)-1-((R or S)-1-(4-methyl-6-((1R,5S)-2-oxo-3-azabicyclo[3.1.0]hexan-3-yl)pyridin-3-yl)ethyl)-1H-1,2,3-triazole-4-carboxamide] | 0.0019
7 | Cc1cc(N2C[C@H]3C[C@H]3C2=O)ncc1C(C)n1cc(C(=O)N[C@H]2C[C@@H](c3cc(Cl)ccc3OC(F)F)C2)nn1 (single isomer, unassigned) [Example 69, N-((cis)-3-(5-chloro-2-(difluoromethoxy)phenyl)cyclobutyl)-1-((R or S)-1-(4-methyl-6-((1R,5S)-2-oxo-3-azabicyclo[3.1.0]hexan-3-yl)pyridin-3-yl)ethyl)-1H-1,2,3-triazole-4-carboxamide] | 2.79
8 | Cc1cc(N2C[C@H]3C[C@H]3C2=O)ncc1C(C)n1cc(C(=O)N[C@H]2C[C@@H](c3cc(Cl)ccc3OC(F)F)C2)nn1 (single isomer, unassigned) [Example 70, N-((cis)-3-(5-chloro-2-(difluoromethoxy)phenyl)cyclobutyl)-1-((S or R)-1-(4-methyl-6-((1R,5S)-2-oxo-3-azabicyclo[3.1.0]hexan-3-yl)pyridin-3-yl)ethyl)-1H-1,2,3-triazole-4-carboxamide] | 0.0146
9 | Cc1cc(N2C[C@H]3C[C@H]3C2=O)ncc1C(C)n1cc(C(=O)N[C@H]2C[C@@H](c3cc(Cl)ccc3C(F)F)C2)nn1 (single isomer, unassigned) [Example 71, N-((cis)-3-(5-chloro-2-(difluoromethyl)phenyl)cyclobutyl)-1-((R or S)-1-(4-methyl-6-((1R,5S)-2-oxo-3-azabicyclo[3.1.0]hexan-3-yl)pyridin-3-yl)ethyl)-1H-1,2,3-triazole-4-carboxamide] | 0.0127
10 | Cc1cc(N2C[C@H]3C[C@H]3C2=O)ncc1C(C)n1cc(C(=O)N[C@H]2C[C@@H](c3cc(Cl)ccc3C(F)F)C2)nn1 (single isomer, unassigned) [Example 72, N-((cis)-3-(5-chloro-2-(difluoromethyl)phenyl)cyclobutyl)-1-((S or R)-1-(4-methyl-6-((1R,5S)-2-oxo-3-azabicyclo[3.1.0]hexan-3-yl)pyridin-3-yl)ethyl)-1H-1,2,3-triazole-4-carboxamide] | 10
11 | Cc1cc(N2C[C@H]3C[C@H]3C2=O)ncc1C(C)n1cc(C(=O)N[C@H]2C[C@@H](c3cc(Cl)ccn3)C2)nn1 (single isomer, unassigned) [Example 73, N-((cis)-3-(4-chloropyridin-2-yl)cyclobutyl)-1-((R or S)-1-(4-methyl-6-((1R,5S)-2-oxo-3-azabicyclo[3.1.0]hexan-3-yl)pyridin-3-yl)ethyl)-1H-1,2,3-triazole-4-carboxamide] | 0.107
12 | Cc1cc(N2C[C@H]3C[C@H]3C2=O)ncc1C(C)n1cc(C(=O)N[C@H]2C[C@@H](c3cc(Cl)ccn3)C2)nn1 (single isomer, unassigned) [Example 74, N-((cis)-3-(4-chloropyridin-2-yl)cyclobutyl)-1-((S or R)-1-(4-methyl-6-((1R,5S)-2-oxo-3-azabicyclo[3.1.0]hexan-3-yl)pyridin-3-yl)ethyl)-1H-1,2,3-triazole-4-carboxamide] | 0.0039
13 | Cc1cc(N2C[C@H]3C[C@H]3C2=O)ncc1C(C)n1cc(C(=O)N[C@H]2C[C@@](F)(c3cc(Cl)ccc3C#N)C2)nn1 (single isomer, unassigned) [Example 75, N-(cis)-3-(5-chloro-2-cyanophenyl)-3-fluorocyclobutyl)-1-((R or S)-1-(4-methyl-6-((1R,5S)-2-oxo-3-azabicyclo[3.1.0]hexan-3-yl)pyridin-3-yl)ethyl)-1H-1,2,3-triazole-4-carboxamide] | 0.0002
14 | Cc1cc(N2C[C@H]3C[C@H]3C2=O)ncc1C(C)n1cc(C(=O)N[C@H]2C[C@@](F)(c3cc(Cl)ccc3C#N)C2)nn1 (single isomer, unassigned) [Example 76, N-(cis)-3-(5-chloro-2-cyanophenyl)-3-fluorocyclobutyl)-1-((S or R)-1-(4-methyl-6-((1R,5S)-2-oxo-3-azabicyclo[3.1.0]hexan-3-yl)pyridin-3-yl)ethyl)-1H-1,2,3-triazole-4-carboxamide] | 0.0157
15 | C[C@H](c1cnc(N2C[C@H]3C[C@H]3C2=O)nc1)n1cc(C(=O)N[C@H]2C[C@@H](c3cc(Cl)ccc3C#N)C2)nn1 (single isomer, unassigned) [Example 77] | 0.0081
16 | CC(c1cnc(N2C[C@H]3C[C@H]3C2=O)nc1)n1cc(C(=O)N[C@H]2C[C@@H](c3cc(Cl)ccc3C#N)C2)nn1 (single isomer, unassigned) [Example 78] | 0.0415
17 | Cc1nc(N2C[C@H]3C[C@H]3C2=O)ncc1C(C)n1cc(C(=O)N[C@H]2C[C@@H](c3cc(Cl)ccc3C#N)C2)nn1 (single isomer, unassigned) [Example 80, N-((cis)-3-(5-chloro-2-cyanophenyl)cyclobutyl)-1-((R or S)-1-(4-methyl-2-((1R,5S)-2-oxo-3-azabicyclo[3.1.0]hexan-3-yl)pyrimidin-5-yl)ethyl)-1H-1,2,3-triazole-4-carboxamide] | 0.105
18 | Cc1nc(N2C[C@H]3C[C@H]3C2=O)ncc1C(C)n1cc(C(=O)N[C@H]2C[C@@H](c3cc(Cl)ccc3C#N)C2)nn1 (single isomer, unassigned) [Example 81, N-((cis)-3-(5-chloro-2-cyanophenyl)cyclobutyl)-1-((S or R)-1-(4-methyl-2-((1R,5S)-2-oxo-3-azabicyclo[3.1.0]hexan-3-yl)pyrimidin-5-yl)ethyl)-1H-1,2,3-triazole-4-carboxamide] | 0.0019
19 | Cc1nc(N2C[C@H]3C[C@H]3C2=O)ncc1C(C)n1cc(C(=O)NC2CC(C)(c3cc(Cl)ccc3C#N)C2)nn1 (single isomer, unassigned) [Example 82, N-((cis)-3-(5-chloro-2-cyanophenyl)-3-methylcyclobutyl)-1-((R or S)-1-(4-methyl-2-((1R,5S)-2-oxo-3-azabicyclo[3.1.0]hexan-3-yl)pyrimidin-5-yl)ethyl)-1H-1,2,3-triazole-4-carboxamide] | 0.0006
20 | Cc1nc(N2C[C@H]3C[C@H]3C2=O)ncc1C(C)n1cc(C(=O)NC2CC(C)(c3cc(Cl)ccc3C#N)C2)nn1 (single isomer, unassigned) [Example 83, N-((cis)-3-(5-chloro-2-cyanophenyl)-3-methylcyclobutyl)-1-((S or R)-1-(4-methyl-2-((1R,5S)-2-oxo-3-azabicyclo[3.1.0]hexan-3-yl)pyrimidin-5-yl)ethyl)-1H-1,2,3-triazole-4-carboxamide] | 0.0395
21 | Cc1nc([C@@H](C)n2cc(C(=O)N[C@H]3C[C@@H](c4cc(Cl)ccc4C#N)C3)nn2)cnc1N1C[C@H]2CC2C1=O (single isomer, unassigned) [Example 84] | 0.0016
22 | Cc1nc(C(C)n2cc(C(=O)N[C@H]3C[C@@H](c4cc(Cl)ccc4C#N)C3)nn2)cnc1N1C[C@H]2CC2C1=O (single isomer, unassigned) [Example 85] | 0.0009
